Data from patent US12410164B2, “Heterocyclic compounds and medical use thereof” (FONDAZIONE TELETHON, priority 2018, dated 2025).

The compounds below were run against F508del-CFTR (Homo sapiens, UniProt P13569, DEL508-508) (assay: HS-YFP kinetic fluorescence (iodide quenching rate) assay in CFBE41o− cells). Conditions: Table 1; compound at 10 μM plus VX-809; (QRTOT − QRVX)/QRVX, HS-YFP assay.
Type: cell-based
Design: expressed in transfected cells; host or cells: CFBE41o- cells with expression of F508del-CFTR and HS-YFP (generated as in Sondo et al. 2011)
Method in brief: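 CFBE41o- cells co-expressing F508del-CFTR and HS-YFP, treated 24 h with compound (0.1-0.2% DMSO), then stimulated with 20 μM forskolin plus 50 μM genistein. Fluorescence was read for 14 s during NaI injection. Background-subtracted, normalized traces were fitted exponentially to give maximum quenching rate (QR).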

Chain of F508del-CFTR (P13569 with tags, fused parts or gaps DEL508-508): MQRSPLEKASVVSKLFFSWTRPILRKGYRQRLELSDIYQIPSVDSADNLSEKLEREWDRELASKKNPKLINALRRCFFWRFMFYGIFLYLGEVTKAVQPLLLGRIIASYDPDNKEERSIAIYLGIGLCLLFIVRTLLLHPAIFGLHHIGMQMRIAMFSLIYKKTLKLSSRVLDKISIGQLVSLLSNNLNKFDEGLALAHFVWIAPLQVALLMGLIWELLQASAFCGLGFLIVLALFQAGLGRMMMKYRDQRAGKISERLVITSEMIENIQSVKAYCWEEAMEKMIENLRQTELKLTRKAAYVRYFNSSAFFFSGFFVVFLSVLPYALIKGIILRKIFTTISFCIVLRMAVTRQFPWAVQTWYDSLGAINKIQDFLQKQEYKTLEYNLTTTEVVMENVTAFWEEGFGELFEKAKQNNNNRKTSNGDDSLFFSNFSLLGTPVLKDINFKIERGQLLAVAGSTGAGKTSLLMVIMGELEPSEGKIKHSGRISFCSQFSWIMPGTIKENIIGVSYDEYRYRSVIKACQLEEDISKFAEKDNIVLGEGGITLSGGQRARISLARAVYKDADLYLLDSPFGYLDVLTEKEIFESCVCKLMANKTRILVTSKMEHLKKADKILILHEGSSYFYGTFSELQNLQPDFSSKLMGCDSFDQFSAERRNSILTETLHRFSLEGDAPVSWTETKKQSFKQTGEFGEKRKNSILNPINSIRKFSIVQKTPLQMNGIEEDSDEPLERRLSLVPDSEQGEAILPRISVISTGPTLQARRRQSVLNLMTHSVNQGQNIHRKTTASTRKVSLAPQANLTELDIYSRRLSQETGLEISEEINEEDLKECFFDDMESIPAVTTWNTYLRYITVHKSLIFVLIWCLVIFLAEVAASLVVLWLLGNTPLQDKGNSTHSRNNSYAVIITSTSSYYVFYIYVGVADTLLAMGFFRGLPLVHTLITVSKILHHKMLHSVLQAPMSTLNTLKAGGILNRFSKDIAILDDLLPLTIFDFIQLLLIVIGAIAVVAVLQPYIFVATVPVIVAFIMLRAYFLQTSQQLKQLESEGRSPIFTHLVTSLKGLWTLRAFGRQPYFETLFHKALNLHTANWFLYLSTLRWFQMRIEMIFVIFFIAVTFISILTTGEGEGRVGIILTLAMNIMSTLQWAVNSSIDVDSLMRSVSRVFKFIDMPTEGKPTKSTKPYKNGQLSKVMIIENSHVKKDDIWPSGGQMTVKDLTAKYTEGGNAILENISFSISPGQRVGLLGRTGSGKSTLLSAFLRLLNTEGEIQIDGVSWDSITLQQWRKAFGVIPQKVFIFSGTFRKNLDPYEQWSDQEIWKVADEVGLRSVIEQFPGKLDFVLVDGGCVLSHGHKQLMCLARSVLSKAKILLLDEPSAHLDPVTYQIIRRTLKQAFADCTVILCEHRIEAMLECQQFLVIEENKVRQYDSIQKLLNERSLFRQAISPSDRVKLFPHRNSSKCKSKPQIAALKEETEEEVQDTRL

First: Cc1cccc(Cn2c(C(=O)OC(C)C)c(Br)c3c2-c2[nH]c(=O)c(S(=O)(=O)c4ccccc4)cc2CC3)c1 [PP104, Propan-2-yl 7-(benzenesulfonyl)-3-bromo-1-[(3-methylphenyl)methyl]-8-oxo-4,5,8,9-tetrahydro-1H-pyrrolo[3,2-h]quinoline-2-carboxylate]
Second: COC(=O)c1c(Br)c2c(n1Cc1ccc(C)cc1)-c1[nH]c(=O)c(S(=O)(=O)c3ccccc3)cc1CC2 [PP031, Methyl 3-bromo-1-(4-methylbenzyl)-8-oxo-7-(phenylsulfonyl)-4,5,8,9-tetrahydro-1H-pyrrolo[3,2-h]quinoline-2-carboxylate]
The “AI (%) additivity index” value of the first is higher: 374% for the first, 39% for the second.

Compared with `CCOC(=O)c1c(Br)c2c(n1Cc1ccc(C)cc1)-c1[nH]c(=O)c(S(=O)(=O)c3ccc(C)cc3)cc1CC2` [PP035, Ethyl 3-bromo-7-(4-methylbenzene-1-sulfonyl)-1-[(4-methylphenyl)methyl]-8-oxo-4,5,8,9-tetrahydro-1H-pyrrolo[3,2-h]quinoline-2-carboxylate], `CCOC(=O)c1c(Br)c2c(n1Cc1cccc(C)c1)-c1[nH]c(=O)c(S(=O)(=O)c3ccc(Cl)cc3)cc1CC2` [PP030, Ethyl 3-bromo-7-[(4-chlorophenyl)sulfonyl]-1-(3-methylbenzyl)-8-oxo-4,5,8,9-tetrahydro-1H-pyrrolo[3,2-h]quinoline-2-carboxylate] is higher in “AI (%) additivity index” value: 56% for the first, 96% for the second.

Compared with `CCOC(=O)c1c(Br)c2c(n1Cc1ccccc1C)-c1[nH]c(=O)c(S(=O)(=O)c3ccccc3)cc1CC2` [PP027, Ethyl 3-bromo 1-(2-methylbenzyl)-8-oxo-7-(phenylsulfonyl)-4,5,8,9-tetrahydro-1H-pyrrolo[3,2-h]quinoline-2-carboxylate], `CCOC(=O)c1c(Br)c2c(n1Cc1ccc(C(F)(F)F)cc1)-c1[nH]c(=O)c(S(=O)(=O)c3ccccc3)cc1CC2` [PP071, Ethyl 7-(benzenesulfonyl)-3-bromo-8-oxo-1-{[4-(trifluoromethyl)phenyl]methyl}-4,5,8,9-tetrahydro-1H-pyrrolo[3,2-h]quinoline-2-carboxylate] is lower in “AI (%) additivity index” value: 185% for the first, 35% for the second.

First: COC(=O)c1cc2c(n1Cc1ccccc1C)-c1[nH]c(=O)c(S(=O)(=O)c3ccccc3)cc1CC2 [PP020, Methyl 1-(2-methylbenzyl)-8-oxo-7-(phenylsulfonyl)-4,5,8,9-tetrahydro-1H-pyrrolo[3,2-h]quinoline-2-carboxylate]
Second: COC(=O)c1cc2c(n1Cc1ccc(C)cc1)-c1[nH]c(=O)c(S(=O)(=O)c3ccccc3)cc1CC2 [PP019, Methyl 1-(4-methylbenzyl)-8-oxo-7-(phenylsulfonyl)-4,5,8,9-tetrahydro-1H-pyrrolo[3,2-h]quinoline-2-carboxylate]
The “AI (%) additivity index” value of the first is higher: 33% for the first, 29% for the second.

Compared with `Cc1ccc(Cn2c(C(=O)O)c(Br)c3c2-c2[nH]c(=O)c(S(=O)(=O)c4ccccc4)cc2CC3)cc1C` [PP095, 7-(Benzenesulfonyl)-3-bromo-1-[(3,4-dimethylphenyl)methyl]-8-oxo-4,5,8,9-tetrahydro-1H-pyrrolo[3,2-h]quinoline-2-carboxylic acid], `Cc1ccc(Cn2c(C(=O)NC(C)C)c(Br)c3c2-c2[nH]c(=O)c(S(=O)(=O)c4ccccc4)cc2CC3)cc1` [PP086, 7-(Benzenesulfonyl)-3-bromo-1-[(4-methylphenyl)methyl]-8-oxo-N-(propan-2-yl)-4,5,8,9-tetrahydro-1H-pyrrolo[3,2-h]quinoline-2-carboxamide] is higher in “AI (%) additivity index” value: 11% for the first, 116% for the second.

First: CCOC(=O)c1cc2c(n1C)-c1[nH]c(=O)c(S(=O)(=O)c3ccccc3)cc1CC2 [PP010]
Second: CCOC(=O)c1cc2c(n1Cc1ccc(C)c(C)c1)-c1[nH]c(=O)c(S(=O)(=O)c3ccccc3)cc1CC2 [PP025, Ethyl 7-(benzenesulfonyl)-1-[(3,4-dimethylphenyl)methyl]-8-oxo-4,5,8,9-tetrahydro-1H-pyrrolo[3,2-h]quinoline-2-carboxylate]
The “AI (%) additivity index” value of the first is lower: 95% for the first, 178% for the second.

First: CCOC(=O)c1cc2c(n1Cc1ccc(C)cc1)-c1[nH]c(=O)c(S(C)(=O)=O)cc1CC2 [PP024, Ethyl 7-(metansulfonyl)-1-[(4-methylphenyl)methyl]-8-oxo-4,5,8,9-tetrahydro-1H-pyrrolo[3,2-h]quinoline-2-carboxylate]
Second: CCOC(=O)c1cc2c(n1Cc1ccc(I)cc1)-c1[nH]c(=O)c(S(=O)(=O)c3ccccc3)cc1CC2 [PP062, Ethyl 7-(benzenesulfonyl)-1-[(4-iodophenyl)methyl]-8-oxo-4,5,8,9-tetrahydro-1H-pyrrolo[3,2-h]quinoline-2-carboxylate]
The “AI (%) additivity index” value of the first is lower: 11% for the first, 95% for the second.

First: Cc1ccc(Cn2c(C(=O)OC(C)C)cc3c2-c2[nH]c(=O)c(S(=O)(=O)c4ccccc4)cc2CC3)cc1 [PP022, Propan-2-yl 7-(benzenesulfonyl)-1-[(4-methylphenyl)methyl]-8-oxo-4,5,8,9-tetrahydro-1H-pyrrolo[3,2-h]quinoline-2-carboxylate]
Second: CC(C)NC(=O)c1c(Br)c2c(n1Cc1ccc(Br)cc1)-c1[nH]c(=O)c(S(=O)(=O)c3ccccc3)cc1CC2 [PP097, 7-(Benzenesulfonyl)-3-bromo-1-[(4-bromophenyl)methyl]-8-oxo-N-(propan-2-yl)-4,5,8,9-tetrahydro-1H-pyrrolo[3,2-h]quinoline-2-carboxamide]
The “AI (%) additivity index” value of the first is higher: 279% for the first, 99% for the second.

In the case of `CCOC(=O)c1cc2c(n1Cc1c(C)cc(C)cc1C)-c1[nH]c(=O)c(S(=O)(=O)c3ccccc3)cc1CC2` [PP068, Ethyl 7-(benzenesulfonyl)-8-oxo-1-[(2,4,6-trimethylphenyl)methyl]-4,5,8,9-tetrahydro-1H-pyrrolo[3,2-h]quinoline-2-carboxylate], the “AI (%) additivity index” value is reported as 116%.

Same assay, conditions: Table 2; compound at 10 μM plus VX-809; (QRTOT − QRVX)/QRVX

`CCOC(=O)c1cc2c(n1Cc1ccc(C)cc1)-c1[nH]c(=O)c(S(=O)(=O)c3ccccc3)cc1CCC2` [PP048, Ethyl 8-(benzenesulfonyl)-1-[(4-methylphenyl)methyl]-9-oxo-1,4,5,6,9,10-hexahydropyrrolo[3′,2′:6,7]cyclohepta[1,2-b]pyridine-2-carboxylate] was tested, and the AI additivity index was 22%.

Same assay, conditions: Table 4; compound at 10 μM plus VX-809; (QRTOT − QRVX)/QRVX

First: CCOC(=O)c1ccc2n1CCCc1cc(S(=O)(=O)c3ccccc3)c(=O)[nH]c1-2 [QZN5, Ethyl 3-(benzenesulfonyl)-2-oxo-1,5,6,7-tetrahydro-2H-pyrido[2,3-c]pyrrolo[1,2-a]azepine-9-carboxylate]
Second: CC(C)OC(=O)c1c(Br)cc2n1CCCc1cc(S(=O)(=O)c3ccccc3)c(=O)[nH]c1-2 [QZN14, Propan-2-yl 3-(benzenesulfonyl)-10-bromo-2-oxo-1,5,6,7-tetrahydro-2H-pyrido[2,3-c]pyrrolo[1,2-a]azepine-9-carboxylate]
The “AI (%) additivity index” value of the first is lower: 19% for the first, 141% for the second.

Same assay, conditions: Table 6; compound at 10 μM plus VX-809; (QRTOT-QRVX)/QRVX

With `CCOC(=O)c1nn(Cc2ccc(C)cc2)c2c1CCc1cc(S(=O)(=O)c3ccccc3)c(=O)[nH]c1-2` [PZ1, Ethyl 7-(benzenesulfonyl)-1-[(4-methylphenyl)methyl]-8-oxo-4,5,8,9-tetrahydro-1H-pyrazolo[4,3-h]quinoline-3-carboxylate] the “AI (%) additivity index” value was 88%.

Same assay, conditions: relative to the analogue

In the case of `CCOC(=O)c1c(Br)c2c(n1Cc1ccccc1C)-c1[nH]c(=O)c(S(=O)(=O)c3ccccc3)cc1CC2` [PP027, Ethyl 3-bromo 1-(2-methylbenzyl)-8-oxo-7-(phenylsulfonyl)-4,5,8,9-tetrahydro-1H-pyrrolo[3,2-h]quinoline-2-carboxylate], the “structure-activity comparison of corrector potency/activity” value is reported as “potency comparable to that of PP008”.
In the case of `CCOC(=O)c1cc2c(n1C)-c1[nH]c(=O)c(S(=O)(=O)c3ccccc3)cc1CC2` [PP010], the “structure-activity comparison of corrector potency/activity” value is reported as “causes a reduction in activity”.
